Source: the OligoGym collection
Several values for one entry are separate records, joined by “and”; a condition that tells them apart may be missing. Identical values can stand only once. After the bases stand the sugars from the 5' end (letter, count) and the backbone: PS all phosphorothioate, else s phosphorothioate and o phosphodiester by linkage. Methylation of C is not given here. e = 2'-O-(2-methoxyethyl) (MOE); k = constrained ethyl (cEt); d = 2'-deoxy (DNA)

Molecular target: IRF4
Conditions: ASO

Row | Sequence | target mRNA inhibition (SK-MEL-28, 4 µM) [%] | target mRNA inhibition (MM.1R, 1 µM) | also measured
1 | ACGCAATGGCAAAAGA (sugars k3 d10 k3, PS) | 11 |  | 
2 | ACGCACCATTCAGACA (sugars k3 d10 k3, PS) | -2 |  | 
3 | ACGCACGGAGAGGGCG (sugars k3 d10 k3, PS) | 1 |  | 
4 | ACGCAGAGCCAGTAGG (sugars k3 d10 k3, PS) | 50 |  | 
5 | ACGGAAGTTTACACTG (sugars e1 k2 d9 k2 e2, PS) |  | 17% | 
6 | ACGGACGAACGCGCAA (sugars k3 d10 k3, PS) |  | -7% | 
7 | ACGGACTGGAACATTG (sugars k3 d10 k3, PS) |  | 38% | 
8 | ACGGGAATTTCCATTG (sugars k3 d10 k3, PS) | 67 |  | target mRNA inhibition (SK-MEL-28, 0.185 µM): 11% and 5% and 1%; target mRNA inhibition (SK-MEL-28, 5 µM): 57% and 61% and 82%; target mRNA inhibition (SK-MEL-28, 15 µM): 83% and 79% and 94%
9 | ACGTGTGCTTGCCAAG (sugars kkdddddddddkekek, PS) |  | 49% and 44% | 
10 | ACTAAATTCTAGTTTG (sugars k3 d10 k3, PS) | 0 |  | 
11 | ACTAACTGGCTTCCAG (sugars k3 d10 k3, PS) | 31 |  | 
12 | ACTAATTCCATAGAGC (sugars k3 d10 k3, PS) | 79 | -17% | target mRNA inhibition (MM.1R, 0.0625 µM): -18%; target mRNA inhibition (MM.1R, 0.074 µM): -12%; target mRNA inhibition (MM.1R, 0.222 µM): -13%; target mRNA inhibition (MM.1R, 0.25 µM): -12%; target mRNA inhibition (MM.1R, 0.666 µM): -10%; target mRNA inhibition (MM.1R, 2 µM): -4%; target mRNA inhibition (MM.1R, 4 µM): -6%
13 | ACTAGATTGTAGGACA (sugars k3 d10 k3, PS) | -9 |  | 
14 | ACTAGCAGGGCACGCT (sugars k3 d10 k3, PS) | 38 |  | 
15 | ACTCAGCAAGTGTCTT (sugars k3 d10 k3, PS) | 47 |  | 
16 | ACTGAGAGTGCGAGGT (sugars k3 d10 k3, PS) | -20 |  | 
17 | ACTGAGATATCCTGCA (sugars k3 d10 k3, PS) | 19 |  | 
18 | ACTGAGTACAAACTAA (sugars k3 d10 k3, PS) | 32 |  | 
19 | ACTGCTGTGTGTCAAA (sugars k4 d8 k4, PS) | 19 |  | 
20 | ACTGCTTGAGGTTTTC (sugars kkdddddddddekeke, PS) |  | 40% | 
21 | ACTGGATATGTGGTGT (sugars k3 d10 k3, PS) |  | 10% | 
22 | ACTGGCATCGAGACGG (sugars k3 d10 k3, PS) | 79 |  | 
23 | ACTGTAAGGGCTGCTC (sugars k3 d10 k3, PS) | 69 |  | 
24 | ACTGTTACCGATGCTT (sugars k2 d9 e3 k2, PS) |  | 27% and 34% | 
25 | ACTGTTACCGATGCTT (sugars kkddddddddddkeke, PS) |  | 30% and 48% | 

Row | Sequence | target mRNA inhibition (SK-MEL-28, 4 µM) [%] | target mRNA inhibition (MM.1R, 1 µM) | also measured
26 | ACTGTTACCGATGCTT (sugars kkdddddddddkekek, PS) |  | 30% and 18% | 
27 | ACTTAAGCAAGTGGAG (sugars k3 d10 k3, PS) | 63 |  | 
28 | ACTTAAGCTAAACTCC (sugars k3 d10 k3, PS) | 21 |  | 
29 | ACTTACACCCAGAAGT (sugars k3 d10 k3, PS) | -10 |  | 
30 | ACTTACAGGACTATTT (sugars k3 d10 k3, PS) | 16 |  | 
31 | ACTTTGTACGGGTCTG (sugars k3 d10 k3, PS) | 39 |  | 
32 | ACTTTTAGAGAGGAGA (sugars k2 d9 e3 k2, PS) |  | 36% | 
33 | ACTTTTAGAGAGGAGA (sugars kddddddddddkekek, PS) |  | 32% | 
34 | ACTTTTAGAGAGGAGA (sugars kkkdddddddddkeke, PS) |  | 41% | 
35 | AGAAAACTCTAACCCT (sugars k3 d10 k3, PS) | 25 |  | 
36 | AGAAGCACTGGCATCG (sugars k3 d10 k3, PS) | 37 |  | 
37 | AGAAGCACTGGCATTG (sugars k3 d10 k3, PS) | 45 |  | 
38 | AGACAAGTGCCCATCC (sugars k3 d10 k3, PS) |  | 1% | 
39 | AGACAAGTGCTAGGAT (sugars k3 d10 k3, PS) | 56 |  | 
40 | AGACAGATGACATGCT (sugars k3 d10 k3, PS) | 50 |  | 
41 | AGACATTACTAGATTG (sugars k3 d10 k3, PS) | 66 |  | 
42 | AGACCAATTTATGCCA (sugars k3 d10 k3, PS) |  | 7% | 
43 | AGAGCCCCTACCTTTT (sugars k3 d10 k3, PS) |  | -7% | 
44 | AGATAACATGAGAGTG (sugars k3 d10 k3, PS) | 41 |  | 
45 | AGATAGGAAGCACTGG (sugars k3 d10 k3, PS) | 46 |  | 
46 | AGATAGTTAAGTACTT (sugars k3 d10 k3, PS) | 11 |  | 
47 | AGATGTAAAGATAGGA (sugars k3 d10 k3, PS) | 54 |  | 
48 | AGCAAGTCGGTCCACA (sugars k3 d10 k3, PS) | 54 |  | 
49 | AGCAAGTGTCTAAAGT (sugars k3 d10 k3, PS) | 62 | 22% | target mRNA inhibition (MM.1R, 0.0625 µM): -1%; target mRNA inhibition (MM.1R, 0.074 µM): -8%; target mRNA inhibition (MM.1R, 0.222 µM): 6%; target mRNA inhibition (MM.1R, 0.25 µM): 12%; target mRNA inhibition (MM.1R, 0.666 µM): 11%; target mRNA inhibition (MM.1R, 2 µM): 33%; target mRNA inhibition (MM.1R, 4 µM): 51%
50 | AGCAATTAGCTCTTCT (sugars k3 d10 k3, PS) |  | 11% | 

Row | Sequence | target mRNA inhibition (SK-MEL-28, 4 µM) [%] | target mRNA inhibition (MM.1R, 1 µM) | also measured
51 | AGCAGAACGAGGTAAA (sugars k3 d10 k3, PS) | 70 |  | 
52 | AGCAGTGATGTCAGGT (sugars kddddddddddkekek, PS) |  | 77% and 67% and 68% | target mRNA inhibition (MM.1R, 0.0625 µM): 37%; target mRNA inhibition (MM.1R, 0.25 µM): 50%; target mRNA inhibition (MM.1R, 4 µM): 84%
53 | AGCAGTGATGTCAGGT (sugars kdddddddddkekeke, PS) |  | 26% and 36% | 
54 | AGCAGTGATGTCAGGT (sugars kkddddddddddkeke, PS) |  | 67% and 64% | 
55 | AGCAGTGATGTCAGGT (sugars kkdddddddddkdkdk, PS) |  | 55% and 48% | 
56 | AGCATAAAAGGTTCCT (sugars k3 d10 k3, PS) | 45 |  | 
57 | AGCATATTCCAACAGG (sugars k3 d10 k3, PS) | 69 | 18% | target mRNA inhibition (MM.1R, 0.0625 µM): -1%; target mRNA inhibition (MM.1R, 0.074 µM): -8%; target mRNA inhibition (MM.1R, 0.222 µM): -6%; target mRNA inhibition (MM.1R, 0.25 µM): 6%; target mRNA inhibition (MM.1R, 0.666 µM): 19%; target mRNA inhibition (MM.1R, 2 µM): 32%; target mRNA inhibition (MM.1R, 4 µM): 58%
58 | AGCCACTATGGTAGGA (sugars k3 d10 k3, PS) | 43 |  | 
59 | AGCCAGCCAGAGGTTC (sugars k3 d10 k3, PS) | 30 |  | 
60 | AGCCAGTGGCTGAAAC (sugars k3 d10 k3, PS) | 21 |  | 
61 | AGCCCCTCAGGAAATG (sugars k3 d10 k3, PS) | 24 |  | 
62 | AGCCGCCGGCACAGGC (sugars k3 d10 k3, PS) | 1 |  | 
63 | AGCCTAGAGGTGCCTT (sugars k3 d10 k3, PS) | 41 |  | 
64 | AGCCTTCACGCACCAT (sugars k3 d10 k3, PS) | 30 |  | 
65 | AGCGAGTCAGACAGTG (sugars k3 d10 k3, PS) | 16 |  | 
66 | AGCTAAACTCCTAAGT (sugars k3 d10 k3, PS) | 15 |  | 
67 | AGCTAATGAGAGCTTC (sugars k3 d10 k3, PS) | 17 |  | 
68 | AGCTACAAAGAGCACT (sugars k3 d10 k3, PS) | 33 |  | 
69 | AGCTGAGGGCAGCGGT (sugars k3 d10 k3, PS) | -7 |  | 
70 | AGCTGCGGAGCCTGGG (sugars k3 d10 k3, PS) |  | 31% | 
71 | AGCTTGATAAAGGCTG (sugars kdddddddddkekeke, PS) |  | 2% | 
72 | AGCTTGATAAAGGCTG (sugars kkddddddddddkeke, PS) |  | 1% | 
73 | AGCTTGATAAAGGCTG (sugars kkdddddddddkdkdk, PS) |  | -3% | 
74 | AGCTTGATAAAGGCTG (sugars kkdddddddddkekek, PS) |  | 16% | 
75 | AGCTTGATAAAGGCTG (sugars kkkddddddddkekek, PS) |  | -8% | 

Row | Sequence | target mRNA inhibition (SK-MEL-28, 4 µM) [%] | target mRNA inhibition (MM.1R, 1 µM) | also measured
76 | AGGAACTAGTCGACAG (sugars k3 d10 k3, PS) | 40 |  | 
77 | AGGAAGCACTGGCATT (sugars k3 d10 k3, PS) | 59 |  | 
78 | AGGAAGCCGTTCCTTT (sugars k3 d10 k3, PS) | 42 |  | 
79 | AGGAAGTTTACTAACT (sugars k3 d10 k3, PS) | 58 |  | 
80 | AGGAATGAGCACTCTT (sugars k3 d10 k3, PS) |  | 7% | 
81 | AGGAGAGGCTGAGATA (sugars k3 d10 k3, PS) | 21 |  | 
82 | AGGCACATCAATGTTT (sugars kkdddddddddkdkdk, PS) |  | 4% and 19% | 
83 | AGGCACCTTCGCGGCC (sugars k3 d10 k3, PS) | 18 |  | 
84 | AGGCTAATCAGAATGG (sugars k3 d10 k3, PS) | 42 |  | 
85 | AGGGATGGAACAGTAA (sugars k3 d10 k3, PS) | 47 |  | 
86 | AGGTATACTTAAGCAA (sugars k3 d10 k3, PS) | 68 |  | 
87 | AGGTCTGAGTTGTACA (sugars k3 d10 k3, PS) |  | 55% and 45% | 
88 | AGTAACTTGACTTGAG (sugars k3 d10 k3, PS) |  | -3% | 
89 | AGTAATTTTAAGGCCC (sugars k3 d10 k3, PS) | 60 |  | 
90 | AGTACAAACTAAATTC (sugars k3 d10 k3, PS) | 24 |  | 
91 | AGTATGAGAAACGGCC (sugars k3 d9 k3 e1, PS) |  | 7% | 
92 | AGTATGAGAAACGGCC (sugars kkddddddddddkeke, PS) |  | 9% | 
93 | AGTATGAGAAACGGCC (sugars kkdddddddddkekek, PS) |  | 3% | 
94 | AGTATGAGAAACGGCC (sugars kkkdddddddddkeke, PS) |  | 16% | 
95 | AGTCATCACTCTAGTC (sugars k3 d10 k3, PS) | 53 |  | 
96 | AGTCTAGCTGGGTTTT (sugars k3 d10 k3, PS) | 63 |  | 
97 | AGTGACCACGAGGCCC (sugars k3 d10 k3, PS) | 15 |  | 
